In the test the test system is C. albicans ISS 1. Put plainly: Experimental subcutaneous infection with Candida albicans in mice. In kind it is in vivo, Candida albicans in mice (male CD1 outbred). The following applies: individual samples 1-4; 50 mcg s.c. at 0, 48 and 96 hours (150 total mcg per animal). As to the method:
Male CD1 outbred mice (IFFA Credo) aged 8 weeks were used (4 animals per group).
A pathogenic strain of Candida was used, namely C. albicans ISS 1.
The infected animals were treated with ST 722 dissolved in saline, and Miconazole diluted in saline from a stock solution containing 1% Dimethyl Formamide.
From an overnight broth culture of C. albicans in Sabouraud broth, a fungal suspension was prepared in sterile saline containing 5.0×10^5 cells/mi. An inoculum of 0.5 ml of this suspension was injected subcutaneously into the abdominal wall of each animal.
The compounds were then administered by subcutaneous injection in the same area of the fungal challenge at the dose of 50 mcg (in 0.2 ml of saline) immediately after the inoculum and following 48 and 96 hours (150 total mcg per animal).
Then, 48 hours following the last treatment (6 days after the challenge with Candida), the animals were sacrificed, and the abdominal wall as well as the peritoneum were dissected out.
The excised tissues were then homogenized in 5 ml of sterile saline with a Potter-Elvehjem tissue grinder. The resulting suspensions, appropriately diluted, where plated onto Petri dishes containing a selective agar medium (BIGGY agar), which allows to easily detect the yeast Colony Forming Units (CFU/ml).
The number of colonies scored in a series of dilutions for each single sample consents to calculate the number of yeast cells present in the infected tissue sample as follows: [formula] Where Zi is the number of dilutions performed, Ni is the number of plates prepared for each dilution, and Ci is the total number of yeast cells scored in each dilution.

Molecules are shown by their SMILES. “And” between values parts separate entries of the source, which are not always exact repeats. Equal values may be shown once.

On to `Clc1ccc(COC(Cn2ccnc2)c2ccc(Cl)cc2Cl)c(Cl)c1` (stereo not shown) [Miconazole, reference compound], for which the CFU/mouse entry was “sterile and 3.60 × 10^1 CFU/mouse and 8.10 × 10^1 CFU/mouse”.

For the origin of these results see patent US5525627A, “Esters of acyl carnitines with long-chain aliphatic alcohols and pharmaceutical compositions containing same having antimycotic activity” (Sigma-Tau Industrie Farmaceutiche Riunite S.p.A., priority 1992, dated 1996).
